Test results taken from patent US20250002472A1, “PYRIDYL-CONTAINING COMPOUND” (CHIA TAI TIANQING PHARMACEUTICAL GROUP CO., LTD., priority 2021, published 2025).

How the values were obtained:
Mouse pharmacokinetics = type: in vivo; details: ICR, plasma, po, 3 mg/kg, mice, intragastric 3 mpk vs intravenous 1 mpk, read-out: Absolute bioavailability F (%)
Method: ICR mice weighing 18-22 g were randomized into groups of 9 mice per group after 3-5 days of acclimatization and then administered intragastrically at a dose of 3 mg/kg.
Plasma samples to be tested were prepared by taking blood from the orbit at time points of 15 min, 30 min, 1 h, 2 h, 4 h, 6 h, 8 h, 10 h, and 24 h.
20 μL of each plasma sample to be tested and a standard curve sample were taken, and an acetonitrile solution containing an internal standard was added. A supernatant was obtained by protein precipitation, diluted, and then assayed by LC/MS/MS.
Pharmacokinetic parameters were fitted using a non-compartmental model.

[1] = In vitro liver microsomal stability, mouse; type: in vitro ADME; details: mouse liver microsomes 0.5 mg/mL, NADPH, 37° C.
Method: (§1) Liver microsome incubation samples were prepared by mixing a PBS buffer (pH=7.4), a liver microsome solution (0.5 mg/mL), a test compound, and an NADPH+MgCl2 solution, and incubated at 37° C. and 300 rpm for 1 h. Zero-hour samples were prepared by mixing a PBS buffer (pH=7.4), a liver microsome solution (0.5 mg/mL), and a test compound. An acetonitrile solution containing an internal standard was added to the samples, and supernatants were prepared by protein precipitation, diluted, and then assayed by LC/MS/MS.

[2] = In vitro liver microsomal stability, human; type: in vitro ADME; details: human liver microsomes 0.5 mg/mL, NADPH, 37° C.
Method: as §1

[3] = test system: OCI-LY10 human diffuse large B-cell lymphoma NOD-SCID mouse subcutaneous xenograft tumor; assay: Efficacy evaluation in OCI-LY10 NOD-SCID mouse subcutaneous xenograft tumor model; type: in vivo, NOD-SCID mice
Text: Efficacy evaluation in OCI-LY10 human diffuse large B-cell lymphoma NOD-SCID mouse subcutaneous xenograft tumor model
(1) SPF female NOD-SCID mice (source: Jiangsu Huachuang Xinnuo Pharmaceutical Technology Co., Ltd.) were inoculated subcutaneously at the right side armpit with OCI-LY10 human diffuse large B-cell lymphoma cells at 1×10^7 cells/mouse. When the mean tumor volume reached about 200 mm^3, the animals were divided into a control group (vehicle control group) and treatment groups (compound groups).
The administration dose included 1 mg/kg, 2 mg/kg, and 4 mg/kg, and the administration frequency was once daily. The day of grouping was defined as day 0, and intragastric administration was started on day 0 for 21 consecutive days.
Alternatively, the administration dose was 4 mg/kg, and the administration frequency was 5 times per week. The day of grouping was defined as day 0, and intragastric administration was started on day 0 five times per week for two consecutive weeks.
The tumor volume was measured once every 3 days, and meanwhile, the mice were weighed and the data were recorded; the general behavior of the mice was observed and recorded every day. After the experiment was completed, the tumors were removed, weighed, and photographed.
The detection index and the calculation formula are as follows:
Tumor volume TV (mm^3)=½×(a×b^2), wherein a is the long diameter of the tumor, and b is the short diameter of the tumor; • Relative tumor volume RTV=TVt/TV0, wherein TV0 is the tumor volume on day 0, and TVt is the tumor volume at each measurement; • Relative tumor proliferation rate T/C (%)=(TRTV/CRTV)×100%, wherein TRTV is RTV of the treatment group, and CRTV is RTV of the vehicle control group; • Tumor growth inhibition rate TGI (%)=(1−TW/TW0)×100%; wherein TW is the tumor weight of the treatment group, and TW0 is the tumor weight of the vehicle control group; • Weight change rate WCR (%)=(Wtt−Wt0)/Wt0×100%, wherein Wt0 is the body weight of the mouse on day 0, and Wtt is the body weight of the mouse at each measurement.

SMILES	Mouse liver microsome Residuals at 60 min (%) [1] [%]	Human liver microsome Residuals at 60 min (%) [2] [%]	also measured
NC(=O)/C(=C/n1cnc(-c2cc(C(F)(F)F)nc(C(F)(F)F)c2)n1)c1cnc(NCC(F)F)nc1 [Compound 2]			bioavailability (Mouse pharmacokinetics): 104%
CC(F)(F)CNc1ncc(/C(=C\n2cnc(-c3cc(C(F)(F)F)nc(C(F)(F)F)c3)n2)C(N)=O)cn1 [Compound 3]			bioavailability (Mouse pharmacokinetics): 114%
N#Cc1cncc(/C(=C\n2cnc(-c3cc(C(F)(F)F)nc(C(F)(F)F)c3)n2)C(N)=O)c1 [Compound 10]	93.99	95.75	
NC(=O)/C(=C/n1cnc(-c2cc(C(F)(F)F)nc(C(F)(F)F)c2)n1)c1cnc2ccccc2c1 [Compound 11]			Weight change rate (%) (mean ± SD) ([3]; Table 5, 4 mg/kg intragastric, Day 18 of assay): 0.6 ± 8.1%
NC(=O)/C(=C/n1cnc(-c2cc(C3CC3)nc(C(F)(F)F)c2)n1)c1cncnc1 [Compound 13]	91.15	93.23	
CC(F)(F)CNc1ncc(/C(=C\n2cnc(-c3cc(C4CC4)nc(C(F)(F)F)c3)n2)C(N)=O)cn1 [Compound 15]			bioavailability (Mouse pharmacokinetics): 94.8%
Cc1ccc(/C(=C\n2cnc(-c3cc(C(F)(F)F)nc(C(F)(F)F)c3)n2)C(N)=O)cn1 [Compound 21]			Weight change rate (%) (mean ± SD) ([3]; Table 4, 2 mg/kg intragastric, Day 21 of assay): −2.0 ± 6.5%; bioavailability (Mouse pharmacokinetics): 97.3%
NC(=O)/C(=C/n1cnc(-c2cc(C(F)(F)F)nc(C(F)(F)F)c2)n1)c1cnc2cccnc2c1 [Compound 25]			Weight change rate (%) (mean ± SD) ([3]; Table 4, 4 mg/kg intragastric, Day 21 of assay): 1.7 ± 5.3%
NC(=O)/C(=C/n1cnc(-c2cc(C3CC3)nc(C(F)(F)F)c2)n1)c1cnc2ccccc2c1 [Compound 26]	90.27	96.64	
NC(=O)/C(=C/n1cnc(-c2cc(C3CC3)nc(C(F)(F)F)c2)n1)c1cncc(F)c1 [Compound 27]	94.24	102.54	
N#Cc1cncc(/C(=C\n2cnc(-c3cc(C4CC4)nc(C(F)(F)F)c3)n2)C(N)=O)c1 [Compound 30]	89.94	98.75	
NC(=O)/C(=C/n1cnc(-c2cc(C3CC3)nc(C(F)(F)F)c2)n1)c1cccnc1F [Compound 32]	95.08	100.32	
NC(=O)/C(=C/n1cnc(-c2cc(C3CC3)nc(C(F)(F)F)c2)n1)c1cnc2cccnc2c1 [Compound 33]	98.21	104.79	
COc1ccc(/C(=C\n2cnc(-c3cc(C4CC4)nc(C(F)(F)F)c3)n2)C(N)=O)cn1 [Compound 34]	87.79	101.21	
Cc1ccc(/C(=C\n2cnc(-c3cc(C4CC4)nc(C(F)(F)F)c3)n2)C(N)=O)cn1 [Compound 38]			bioavailability (Mouse pharmacokinetics): 112%
NC(=O)/C(=C/n1cnc(-c2cc(C3CC3)nc(C(F)(F)F)c2)n1)c1ccc(F)nc1 [Compound 39]	89.18	106.91	

Continued, in another order:

Mouse liver microsome Residuals at 60 min (%) [1] [%]	Human liver microsome Residuals at 60 min (%) [2] [%]	SMILES	also measured
93.27	100.33	NC(=O)/C(=C/n1cnc(-c2cc(C(F)(F)F)nc(C(F)(F)F)c2)n1)c1cnc(NCC(F)(F)F)nc1 [Compound 4]	
99.03	97.64	C[C@@H](Nc1ncc(/C(=C\n2cnc(-c3cc(C(F)(F)F)nc(C(F)(F)F)c3)n2)C(N)=O)cn1)C(F)(F)F [Compound 5]	
98.98	101.7	NC(=O)/C(=C/n1cnc(-c2cc(C(F)(F)F)nc(C(F)(F)F)c2)n1)c1cncc(F)c1 [Compound 8]	
83.14	80.48	NC(=O)/C(=C/n1cnc(-c2cc(C3CC3)nc(C(F)(F)F)c2)n1)c1cnc(NCC(F)F)nc1 [Compound 14]	
90.60	88.75	NC(=O)/C(=C/n1cnc(-c2cc(C3CC3)nc(C(F)(F)F)c2)n1)c1cnc(NCC(F)(F)F)nc1 [Compound 16]	
95.11	93.92	C[C@@H](Nc1ncc(/C(=C\n2cnc(-c3cc(C4CC4)nc(C(F)(F)F)c3)n2)C(N)=O)cn1)C(F)(F)F [Compound 17]	
